In BigSolDB 2.1:

Cc1cc(N)n(-c2ccccc2)n1
solubility (mole fraction)
Conditions	in 2-butanone	in acetonitrile	in ethanol	in isopropanol	in methanol	in n-propanol
283.15 K	0.0482	0.124	0.0766	0.056	0.0852	0.0705
285.65 K	0.0511	0.13	0.0811	0.0593	0.089	0.0749
288.15 K	0.0546	0.137	0.0854	0.0632	0.0938	0.0795
290.65 K	0.0581	0.144	0.0903	0.0672	0.0988	0.0839
293.15 K	0.0618	0.15	0.0955	0.0711	0.104	0.0889
295.65 K	0.0653	0.157	0.101	0.0755	0.109	0.0946
298.15 K	0.0694	0.164	0.107	0.0802	0.115	0.0997
300.65 K	0.0736	0.172	0.113	0.0851	0.121	0.105
303.15 K	0.0784	0.18	0.119	0.0906	0.127	0.112
305.65 K	0.0829	0.189	0.126	0.0957	0.134	0.118
308.15 K	0.0881	0.198	0.132	0.102	0.14	0.125
310.65 K	0.0931	0.206	0.139	0.108	0.147	0.132
313.15 K	0.0989	0.216	0.147	0.114	0.154	0.139
315.65 K	0.105	0.226	0.154	0.121	0.162	0.147
318.15 K	0.111	0.236	0.163	0.129	0.171	0.155
